Reference: PubChem BioAssay (NCI)
Several values for one entry are separate records, joined by “and”; a condition that tells them apart may be missing. Equal values may be shown once.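 Five compound concentrations were applied to cells in 96-well plates for 48 hours; endpoints were derived by simple linear interpolation of the resulting dose-response curve. Abbreviation: GI50, concentration required for 50% inhibition of growth. The concentration for full growth arrest is given as TGI.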

What was measured:
Test in all cases: growth of human tumour cells (NCI), 48 h
EKVX NSCLC = test system: EKVX NSCLC
HCT-15 colon = test system: HCT-15 colon
HL-60(TB) leukemia = test system: HL-60(TB) leukemia
HOP-62 NSCLC = test system: HOP-62 NSCLC
HT29 colon = test system: HT29 colon
M14 melanoma = test system: M14 melanoma
MDA-N = test system: MDA-N
OVCAR-5 ovarian = test system: OVCAR-5 ovarian
SF-295 CNS = test system: SF-295 CNS
SK-MEL-2 melanoma = test system: SK-MEL-2 melanoma
SR leukemia = test system: SR leukemia
TK-10 renal = test system: TK-10 renal
K-562 leukemia = test system: K-562 leukemia

| SMILES | TGI (EKVX NSCLC) | TGI (HCT-15 colon) | TGI (HL-60(TB) leukemia) | TGI (HOP-62 NSCLC) | TGI (HT29 colon) | TGI (M14 melanoma) | TGI (MDA-N) | TGI (OVCAR-5 ovarian) | TGI (SF-295 CNS) | TGI (SK-MEL-2 melanoma) | TGI (SR leukemia) | TGI (TK-10 renal) | TGI (K-562 leukemia) | GI50 (SK-MEL-2 melanoma) |
| --- | --- | --- | --- | --- | --- | --- | --- | --- | --- | --- | --- | --- | --- | --- |
| O=C1NC(N2CCCCC2)=N/C1=C\c1ccccc1 | > 100 µM | > 100 µM | > 100 µM | > 100 µM | > 100 µM | > 100 µM | > 100 µM | > 100 µM | > 100 µM | > 100 µM | > 100 µM | > 100 µM |  |  |
| C#CCOC(=O)[C@@H](C)c1ccc2cc(OC)ccc2c1 | > 100 µM | > 100 µM | 35.8 µM | > 100 µM |  | > 100 µM | > 100 µM | > 100 µM | > 100 µM | > 100 µM | > 100 µM | > 100 µM | > 100 µM |  |
| O=C(c1cccc2cc(O)ccc12)c1cn(CCN2CCOCC2)c2ccccc12 | 64.8 µM |  | 55.5 µM | 46.1 µM | 37.1 µM | 36.9 µM | 58.3 µM | 73.5 µM |  | 25 µM | > 100 µM | 50.9 µM | > 100 µM |  |
| CC1(C)CC[C@]2(C(=O)O)CC[C@]3(C)C(=CC[C@@H]4[C@@]5(C)CC[C@H](OC6OC(CO)C(O)C(O)C6O)C(C)(C)[C@@H]5CC[C@]43C)[C@@H]2C1 (stereo partly specified) |  | 10.7 µM | 3.83 µM | 3.14 µM | 2.98 µM | 3.12 µM | 3.54 µM | 4.12 µM | 3.2 µM | 3.15 µM | 5.53 µM |  | 3.67 µM |  |
| Nc1nc(Cl)c(C=O)c(NCC2(CO)CCC2)n1 | 46.9 µM | 25.3 µM | 22.3 µM | 65.1 µM | > 100 µM | > 100 µM | 77 µM | > 100 µM | 67.6 µM | 28.3 µM | 43.8 µM | > 100 µM | 31.7 µM |  |
| COc1ccc(C(=O)N(Cc2cccnc2)C(=S)N(Cc2cccnc2)C(=O)c2ccc(OC)cc2)cc1 | > 100 µM | > 100 µM | > 100 µM | > 100 µM | > 100 µM | > 100 µM | > 100 µM | > 100 µM | > 100 µM | > 100 µM | > 100 µM | > 100 µM | > 100 µM |  |
| C(/C=C/Nc1ccc(-c2ccccc2)cc1)=Nc1ccc(-c2ccccc2)cc1 | > 100 µM | > 100 µM | > 100 µM | > 100 µM | > 100 µM | > 100 µM | > 100 µM | > 100 µM | > 100 µM | > 100 µM | > 100 µM | > 100 µM | > 100 µM |  |
| NS(=O)(=O)c1ccc(N2C(=O)C(=O)N(c3ccccc3)C2=S)cc1 | > 100 µM | > 100 µM | > 100 µM | > 100 µM | > 100 µM |  | > 100 µM | > 100 µM | > 100 µM | > 100 µM | > 100 µM | > 100 µM | > 100 µM |  |
| CNC(=O)OCC1=C(COC(=O)NC)C(C)N(c2ccccc2)C1 (stereo unspecified) | > 100 µM | > 100 µM | 47 µM | > 100 µM | 53.7 µM | 65.8 µM | > 100 µM | 91.9 µM | > 100 µM | 70.6 µM | 67.4 µM | > 100 µM | 72 µM |  |
| Clc1nc(Nc2nc3ccccc3[nH]2)nc(Cl)c1-c1ccccc1 | 71.4 µM | 34.2 µM | > 100 µM |  | 34.9 µM | 98 µM | 23.7 µM | 59.6 µM | 46.8 µM | 55.9 µM | > 100 µM | > 100 µM | > 100 µM |  |
| COC(=O)[C@]1(Cc2ccc3ccccc3c2)CCCCCCN1C(=O)c1ccccc1 | > 50.9 µM | > 47.1 µM | > 40.4 µM | > 46.5 µM | > 45.2 µM | > 52.7 µM | > 53.5 µM | > 65 µM | > 44.5 µM | 25.9 µM | > 100 µM | > 80.8 µM | > 100 µM |  |
| Cc1cc(=O)n2nc(CSc3n[nH]c(=S)s3)sc2n1 | > 100 µM | > 100 µM | > 100 µM | > 100 µM | > 100 µM | > 100 µM | > 100 µM | > 100 µM | > 100 µM | > 100 µM | > 100 µM | > 100 µM | > 100 µM |  |
| O=C(NNC(=O)c1c(Cl)c(Cl)c(Cl)c(Cl)c1-c1nc2ccccc2[nH]1)c1ccc(Cl)cc1 | > 100 µM | > 100 µM | > 100 µM | > 100 µM | > 100 µM | > 100 µM | 53.4 µM | > 100 µM | > 100 µM | > 100 µM | > 100 µM |  | > 100 µM |  |
| COc1ccc2c(c1)C(=O)[C@@](Nc1ccc(C=O)cc1)(OC)[C@@](OC)(c1ccc([N+](=O)[O-])cc1)O2 | > 10 µM | > 10 µM | > 10 µM | > 10 µM | > 10 µM | > 10 µM | > 10 µM | > 10 µM | > 10 µM | > 10 µM | > 10 µM | > 10 µM | > 10 µM |  |
| COc1ncc(C#CC(=O)c2ccccc2)c(OC)n1 | 9.16 µM | 3.18 µM | 4.68 µM | 42 µM | 5.07 µM | 10.5 µM | 3.73 µM | 12.8 µM | 36 µM | 13.4 µM | 4.68 µM |  |  |  |
| Brc1ccc(C2CC3(c4ccccc4)ON=C(c4ccccc4)N3c3ccccc3S2)cc1 (stereo unspecified) | > 100 µM | > 100 µM | > 100 µM | > 100 µM | > 100 µM | > 100 µM | > 100 µM | > 100 µM | > 100 µM | > 100 µM | > 100 µM | > 100 µM | > 100 µM |  |
| Cc1c(C#N)c(N)n(C2OC(CO)C(O)C(O)C2O)c(=S)c1C#N (stereo unspecified) | > 100 µM | > 100 µM | > 100 µM | > 100 µM | > 100 µM | > 100 µM | > 100 µM | > 100 µM | > 100 µM | > 100 µM | > 100 µM | > 100 µM | > 100 µM | 28.8 µM and > 100 µM |
